# Experimental data reported in patent US20260276660A1, “DETERMINATION OF PROGESTOGENS NON-INVASIVELY IN ANIMALS” (Vetcare Oy, priority 2023, published 2026).
# System: Monoclonal mouse 5α-PtG antibody
# Experiment: Cross-reactivity of monoclonal 5α-PtG antibody (enzyme immunoassay)
# Type: binding
# Settings: monoclonal mouse 5α-PtG antibody raised against 5α-PtG-KLH
# Procedure: Monoclonal mouse 5α-PtG antibody was raised against the 5α-PtG-KLH by Thermo Fisher Scientific (Rockford, TL, USA). The antibodies were screened against the 5α-PtG-BSA. Cross-reactivities for the antibody were: 100% 5α-pregnane-3β,6α,20β-triol glucuronide, 25.4% 5α-pregnane-3β,6α,20β-triol, 0.5% 5β-pregnane-3α,20β-diol and 0.5% 5α-pregnane-3β,6α-diol-20-one.
# The 96 well polystyrene, certified MaxiSorp® plates were coated with antigen (5α-PtG-cBSA) by adding 100 μl of 0.25 μg/ml antigen in coating buffer (0.01 M sodium bicarbonate, pH 9.5) in each well. The plates were covered with plastic sticker to prevent evaporation, protected from light and incubated at room temperature over night or several nights at +4° C. The wells were emptied and washed once with 250 μl general washing buffer (e.g. PBS with 0.05% Tween 20 (PBST)), filled with 200 μl blocking buffer (5% sucrose and 0.5% BSA in PBST (w/V)), covered and incubated at +37° C. for a half an hour. The plates were poured empty and dried for three hours at +37° C. Dried plates were covered with plastic sticker, packed in re-sealable plastic bags with silica beads and stored at +4° C. until use.
# The hormone assays were performed from the individual samples collected in different oestrus cycle phases and from the urine sample series from 60 bitches. The 5α-PtG-cBSA coated plates were washed once with 250 μl of PBST. The urine samples were diluted 1:20 in assay buffer (0.2% BSA (w/V) in PBS with 0.01% Triton-X) and added in sample wells (50 μl). A dilution series of standard was prepared by diluting the 5α-PtG in assay buffer and added to standard wells (50 μl; 1200-1.6 nM). Assay buffer without additives was added to two wells to determine the maximum binding capacity (B0) and 1900 nM 5α-PtG control was diluted 1:20 in assay buffer and used as a recovery control in all assays. All samples and standards were measured as two replicates. The stock dilution of monoclonal mouse 5α-PtG antibody (1:100) was further diluted 1:100 in assay buffer and added 50 μl in each well. The plate was covered and incubated at +37° C. for half an hour, followed by washing the plate three times. Horseradish peroxidase labeled secondary antibody (goat anti-mouse IgG HRP) was diluted in 1:20 000 in 0.5% BSA (w/V) in PBST, added 100 μl per well and incubated half an hour at +37° C. After washing the plate three times with PBST, TMB in DMSO solution (0.5% 3,3′,5,5′-tetramethylbenzidine in dimethylsulfoxide (w/V; TCIAT1023 Tokyo Chemical Industry)) was diluted 1:50 in substrate buffer (0.1 M sodium acetate trihydrate, 1.5 mM citric acid monohydrate, 0.005% hydrogen peroxide (30%)), added in each well (100 μl) and incubated at room temperature 30 minutes. The reaction was stopped by adding 50 μl 1 M sulfuric acid to each well. The absorbance was measured at 450 nm by microplate reader (Hidex Sense).
row,Structure (SMILES),Cross-reactivities for the antibody
1,"C[C@@H](O)[C@H]1CC[C@H]2[C@@H]3C[C@H](O[C@@H]4O[C@H](C(=O)O)[C@@H](O)[C@H](O)[C@H]4O)[C@H]4C[C@@H](O)CC[C@]4(C)[C@H]3CC[C@]12C [5α-PtG, 5α-pregnane-3β,6α,20β-triol-6-O-β-D-glucuronide]",100%
2,"C[C@@H](O)[C@H]1CC[C@H]2[C@@H]3C[C@H](O)[C@H]4C[C@@H](O)CC[C@]4(C)[C@H]3CC[C@]12C [5α-pregnane-3β,6α,20β-triol]",25.4%
3,"C[C@H](O)[C@H]1CC[C@H]2[C@@H]3CC[C@@H]4C[C@H](O)CC[C@]4(C)[C@H]3CC[C@]12C [5β-pregnane-3α,20α-diol]",No cross-reactivities
4,"C[C@H](O)[C@@]1(O)CC[C@H]2[C@@H]3CC[C@@H]4C[C@H](O)CC[C@]4(C)[C@H]3CC[C@@]21C [5β-pregnane-3α,17α,20α-triol]",No cross-reactivities
5,"C[C@H](O)[C@H]1CC[C@H]2[C@@H]3CC[C@@H]4C[C@H](O[C@@H]5O[C@H](C(=O)O)[C@@H](O)[C@H](O)[C@H]5O)CC[C@]4(C)[C@H]3CC[C@]12C [PdG, 5β-pregnane-3α,20α-diol-3-glucuronide]",No cross-reactivities
6,"CC(=O)[C@H]1CC[C@H]2[C@@H]3CCC4=CC(=O)CC[C@]4(C)[C@H]3CC[C@]12C [progesterone, pregn-4-ene-3,20-dione]",No cross-reactivities
7,"C[C@H](O)[C@H]1CC[C@H]2[C@@H]3C[C@H](O)[C@H]4C[C@@H](O)CC[C@]4(C)[C@H]3CC[C@]12C [5α-pregnane-3β,6α,20α-triol]",No cross-reactivities
8,"CC(=O)[C@H]1CC[C@H]2[C@@H]3C[C@H](O)[C@H]4C[C@@H](O)CC[C@]4(C)[C@H]3CC[C@]12C [5α-pregnane-3β,6α-diol-20-one]",0.5%
9,"CC(O)C1(O)CCC2C3CCC4CC(O)CCC4(C)C3CCC21C (stereo not drawn) [5β-pregnane-3α,17α,20β-triol]",No cross-reactivities
10,"C[C@@H](O)[C@H]1CC[C@H]2[C@@H]3CC[C@@H]4C[C@H](O)CC[C@]4(C)[C@H]3CC[C@]12C [5β-pregnane-3α,20β-diol]",0.5%
11,"C[C@@H](O)[C@@]1(O)CCC2C3CC[C@H]4C[C@@H](O)CC[C@]4(C)C3CC[C@@]21C (stereo partly drawn) [5α-pregnane-3β,17α,20β-triol]",No cross-reactivities

# System: hepatic S9 enzymes
# Experiment: In vitro metabolism of progesterone by hepatic S9
# Type: in vitro ADME, dog
# Settings: after one hour with ovarian S9, hepatic S9 added
row,Structure (SMILES),change of 17α-OHP when hepatic S9 were added
1,"CC(=O)[C@@]1(O)CC[C@H]2[C@@H]3CCC4=CC(=O)CC[C@]4(C)[C@H]3CC[C@@]21C [17α-OHP, 17α-hydroxyprogesterone]",decreased significantly

# Same assay, conditions: dog, 50 µg/mL
row,Structure (SMILES),hydroxyprogesterones produced from progesterone
1,"CC(=O)[C@H]1CC[C@H]2[C@@H]3CCC4=CC(=O)CC[C@]4(C)[C@H]3CC[C@]12C [progesterone, pregn-4-ene-3,20-dione]","higher amounts of 6α-, 6β- and 16α-hydroxyprogesterones were detected"
